Assay results from EP1140895B1, “THIOPYRAN COMPOUNDS AS INHIBITORS OF MMP” (FUJISAWA PHARMACEUTICAL CO., LTD., priority 1999, dated 2000).

Target: T1, human MMP-13 (Homo sapiens, UniProt P45452)
T1 construct: truncated form of human recombinant MMP-13; purchased Chondrex, USA
Experiment: Inhibitory activity of human MMP-13
Format: biochemical
Settings: commercial kit, truncated form of human recombinant MMP-13, fluorogenic peptide substrate, 1 hour at 35°C
Method: The inhibitory potential of test compounds against human MMP-13 were assayed by using commercial kit (Chondrex, USA) contained truncated form of human recombinant MMP-13 and fluorogenic peptide substrate. Activity of human MMP-13 was determined by monitoring the degradation of fluorogenic peptide substrate after incubation for 1 hour at 35°C and estimated by measuring the fluorescence intensity of degraded peptide substrate at 495 nm (excitation) and 520 nm (emission).
Inhibitory activity of human MMP-13 as mentioned above.

An IC50 of 2.2 nM was found for `O=C(CC1(c2ccc(Oc3ccc(Cl)cc3)cc2)CCCCS1(=O)=O)NO` (single isomer, unassigned) [Example 15, (R or S)-(-)-2-[4-(4-chlorophenoxy)phenyl]-3,4,5,6-tetrahydro-N-hydroxy-2H-thiopyran-2-acetamide 1,1-dioxide] in this work.
